pIC50: −log10 of the molar value. Where two headings read alike, the source gives them in different places.
Target: DCN1-UBC12 interaction (Homo sapiens (Human), UniProt Q96GG9)
Experiment: biochemical
Format: binding
[1] = Table 7, commercial compounds, read-out: TR-FRET IC50
[2] = Table 4, commercial compounds, read-out: TR-FRET IC50
[3] = Table 6, commercial compounds, read-out: TR-FRET IC50

Chain of DCN1-UBC12 interaction (Q96GG9 60-248 limits assumed): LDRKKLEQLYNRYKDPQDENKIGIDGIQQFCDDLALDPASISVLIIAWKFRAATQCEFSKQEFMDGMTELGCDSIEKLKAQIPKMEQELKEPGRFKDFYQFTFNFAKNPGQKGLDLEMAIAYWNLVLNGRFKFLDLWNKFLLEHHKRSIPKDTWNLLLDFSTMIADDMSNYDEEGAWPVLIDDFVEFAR

Row | Compound | pIC50 (read-out: TR-FRET IC50) | further results
1 | COc1cccc(C2c3c(C)nn(C)c3NC(=O)C2NC(=O)c2cccc(C)c2)c1 (centres unmarked) [F27] |  | pIC50 [1]: < 4.17
2 | Cc1ccc(CN2CCC(N(Cc3ccccc3)C(=O)Nc3cc(F)cc(C(F)(F)F)c3)CC2)s1 [A227] | < 4.57 | 
3 | CCn1cnc(NC(=O)NC2CCN(Cc3ccccc3)CC2)n1 [B47] | < 4.17 | 
4 | CCCC(C)N1CCC(N(Cc2ccccc2)C(=O)Nc2ccc(F)c(F)c2F)CC1 (centres unmarked) [A286] | < 4.14 | 
5 | CCCC(C)N1CCC(N(Cc2ccccc2)C(=O)Nc2ccc(-c3ccc(C(=O)OC)cc3)cc2)CC1 (centres unmarked) [A278] | < 4.16 | 
6 | CCCC(C)N1CCC(N(Cc2ccccc2)C(=O)Nc2ccc(C)c([N+](=O)[O-])c2)CC1 (centres unmarked) [A36] | 6.69 | 
7 | CCCC(C)N1CCC(N(Cc2ccccc2)C(=O)Nc2ccc3ccccc3c2)CC1 (centres unmarked) [A10] | 7.10 | 
8 | C#CCCCN1CCC(N(Cc2ccccc2NC(=O)/C=C/C)C(=O)Nc2cccc(C(F)(F)F)c2)CC1 [A195] | < 4.00 | 
9 | CC(N1CCC(N(Cc2ccccc2)C(=O)Nc2cccc(C(F)(F)F)c2)CC1)C(F)(F)F (centres unmarked) [A223] | < 4.60 | 
10 | COc1ccc(C(=O)N2CCC(C(=O)Nc3cc(OC)ccc3OC)CC2)cc1 [C11] |  | pIC50 [2]: < 4.31
11 | CCCC(C)N1CCC(N(Cc2ccccc2)C(=O)Nc2ccc(F)c(S(F)(F)(F)(F)F)c2)CC1 (centres unmarked) [A54] | 6.53 | 
12 | CC(c1cccc(O)c1)N1CCC(N(Cc2ccccc2)C(=O)Nc2cc(F)cc(C(F)(F)F)c2)CC1 (centres unmarked) [A218] | < 4.62 | 
13 | O=C(Nc1cccc(C(F)(F)F)c1)C1CCN(C(=O)/C=C/c2ccccc2)CC1 [C57] |  | pIC50 [2]: < 4.17
14 | COc1ccc(Cl)cc1NC(=O)C1CCN(C(=O)c2ccccc2F)CC1 [C42] |  | pIC50 [2]: < 4.17
15 | O=C(Nc1ccc(F)c(Cl)c1)C1CCN(C(=O)c2ccc(F)cc2)CC1 [C18] |  | pIC50 [2]: < 4.17
16 | CCCC(C)N1CCC(N(Cc2ccccc2)C(=O)Nc2cc(C(F)(F)F)ccc2Cl)CC1 (centres unmarked) [A101] | 5.80 | 
17 | O=C(Nc1ccc(Cl)c(C(F)(F)F)c1)C1CCN(C(=O)c2ccccc2Cl)CC1 [C7] |  | pIC50 [2]: < 4.34
18 | CC1CN(C(=O)N2CCC(C(=O)Nc3cccc(Cl)c3)CC2)c2ccccc2O1 (centres unmarked) [C51] |  | pIC50 [2]: < 4.17
19 | CCc1cccc(C)c1NC(=O)C1CCN(C(=O)c2ccccc2Cl)CC1 [C37] |  | pIC50 [2]: < 4.17
20 | CCCC(C)N1CCC(N(Cc2ccccc2)C(=O)Nc2ccc(C(=O)OC)cc2Cl)CC1 (centres unmarked) [A189] | 4.42 | 
21 | C#CCCCN1CCC(N(Cc2ccccc2NC(=O)C=C)C(=O)Nc2ccc(Cl)c(Cl)c2)CC1 [A304] | < 5.01 | 
22 | CCCC(C)N1CCC(N(CCNC(=O)CCl)C(=O)Nc2cccc(C(F)(F)F)c2)CC1 (centres unmarked) [A251] | < 4.22 | 
23 | CCN(CC)CCN(CC)C(=O)c1cnn(-c2nccc(-c3cccs3)n2)c1C [E3] |  | pIC50 [3]: 5.11
24 | Cc1cc(C)n(-c2ccc(NC(=O)C3CCN(C(=O)CC(F)(F)F)CC3)cc2)n1 [C34] |  | pIC50 [2]: < 4.17
25 | CCCC(C)N1CCC(N(Cc2ccccc2)C(=O)Nc2ccc(Br)cc2Cl)CC1 (centres unmarked) [A111] | 5.65 | 
26 | CSc1ccc(C2c3c(C)nn(C)c3NC(=O)C2NC(=O)c2cccc(C)c2)cc1F (centres unmarked) [F7] |  | pIC50 [1]: 4.38
27 | O=C(Nc1ccc(Br)cc1Cl)NC1CCN(Cc2ccccc2)CC1 [B50] | < 4.17 | 

Row | Compound | pIC50 (read-out: TR-FRET IC50) | further results
28 | CCN(CCN(C)C)C(=O)c1cnn(-c2ncc(C)c(-c3cccs3)n2)c1C1CC1 [E53] |  | pIC50 [3]: < 4.17
29 | CCCC(C)N1CCC(N(Cc2ccccc2)C(=O)Nc2ccc(C(C)(C)C)cc2)CC1 (centres unmarked) [A100] |  | pIC50 (TR-FRET IC50): 5.85
30 | C#CCCCN1CCC(N(Cc2ccccc2NC(=O)C=C)C(=O)Nc2cccc(C(F)(F)F)c2)CC1 [A119] | 6.45 | 
31 | Cc1cccc(CC(=O)NC2CCN(Cc3ccccc3)CC2)c1 [B21] | > 8.39 | 
32 | O=C(NCC(=O)N1CCC(c2nc3ccccc3s2)CC1)c1cccc(F)c1 [D23] | < 4.17 | 
33 | O=C(CN1CCC(Cc2ccccc2)CC1)Nc1cc(C(F)(F)F)cc(C(F)(F)F)c1 [B118] | < 4.11 | 
34 | CCN1CCC(N(Cc2ccco2)C(=O)Nc2cccc(C(F)(F)F)c2)CC1 [B3] | 5.42 | 
35 | CCCC(C)N1CCC(N(Cc2ccccc2)C(=O)Nc2cccc(OC)c2)CC1 (centres unmarked) [A131] | 5.50 | 
36 | CCCCN(C(=O)Nc1ccc(Cl)c(Cl)c1)C1CCN(C(C)CCC)CC1 (centres unmarked) [A20] | 6.93 | 
37 | CSc1cccc(NC(=O)C2CCN(C(=O)c3ccc(F)cc3)CC2)c1 [C4] |  | pIC50 [2]: 4.58
38 | CCCC(C)N1CCC(N(Cc2ccccc2)C(=O)Nc2cc(F)cc(Cl)c2)CC1 (centres unmarked) [A67] | 6.32 | 
39 | CCCC(C)N1CCC(N(Cc2ccccc2)C(=O)Nc2ccc(F)c(-c3nc4ccccc4o3)c2)CC1 (centres unmarked) [A268] | < 4.17 | 
40 | Cn1c(CN2CCC(N(Cc3ccccc3)C(=O)Nc3cc(F)cc(C(F)(F)F)c3)CC2)nc2ccccc21 [A203] | < 4.69 | 
41 | COc1ccccc1NC(=O)N(Cc1ccc(C)o1)C1CCN(Cc2ccccc2)CC1 [B90] | < 4.17 | 
42 | CCCC(C)N1CCC(N(Cc2ccccc2)C(=O)Nc2ccc3c(c2)OC(F)(F)O3)CC1 (centres unmarked) [A52] | 6.55 | 
43 | CC(=O)N1CCC(C(=O)Nc2cccc(C)c2C)CC1 [C41] |  | pIC50 [2]: < 4.17
44 | O=C(Nc1cccc(C(F)(F)F)c1)N[C@H]1CCN(Cc2ccccc2)C[C@@H]1OC(=O)Nc1cccc(C(F)(F)F)c1 [A249] | < 4.22 | 
45 | O=C(Nc1ccccc1Cl)NC1CCN(Cc2ccccc2)CC1 [B55] | < 4.17 | 
46 | CCCC(C)N1CCC(N(Cc2ccccc2)C(=O)Nc2ccc(OC)cc2F)CC1 (centres unmarked) [A290] | < 4.13 | 
47 | COc1cc(SC)ccc1C(=O)N1CCC(c2nc3ccccc3s2)CC1 [D21] | < 4.17 | 
48 | CCCCN(C(=O)Nc1cccc(C(F)(F)F)c1)C1CCN(CCC)CC1 [A96, 1-Butyl-1-(1-Propylpiperidin-4-yl)-3-(3-(Trifluoromethyl)Phenyl)Urea] | 5.88 | 
49 | CCCCN(C)C(=O)c1cnn(-c2ncc(C)c(-c3cccs3)n2)c1C [E42] |  | pIC50 [3]: < 4.17
50 | CCCC(C)N1CCC(N(Cc2cccc(NC(=O)CCl)c2)C(=O)Nc2cccc(C(F)(F)F)c2)CC1 (centres unmarked) [drawing 842] | 7.02 | 
51 | O=C(Nc1cc(F)cc(C(F)(F)F)c1)N(Cc1ccccc1)C1CCN(Cc2ccc(N3CCCC3)cc2)CC1 [A201] | < 4.72 | 
52 | CCCCN1C(C)CC(N(Cc2ccccc2)C(=O)Nc2cccc(C(F)(F)F)c2)CC1C (centres unmarked) [A71] | 6.23 | 
53 | CCCC(C)N1CCC(N(Cc2ccccc2)C(=O)Nc2cccc3cccnc23)CC1 (centres unmarked) [A139] | 5.38 | 
54 | CCCCN1CCC(N(Cc2ccccc2)C(=O)Nc2ccc(C)s2)CC1 [A182] | 4.67 | 

Row | Compound | pIC50 (read-out: TR-FRET IC50) | further results
55 | CCCCN1CCC(N(Cc2ccccc2)C(=O)Nc2cccc(C(F)(F)F)c2F)CC1 [A70] | 6.23 | 
56 | COc1ccc(C(=O)NCC(=O)N2CCC(c3nc4ccccc4s3)CC2)cc1OC [D26] | < 4.17 | 
57 | CCCC(C)N1CCC(N(Cc2ccccc2)C(=O)Nc2c(C(C)C)cccc2C(C)C)CC1 (centres unmarked) [A173] | 4.88 | 
58 | O=C(Nc1cccc(C(F)(F)F)c1)C1CCN(C(=O)c2ccco2)CC1 [C68] |  | pIC50 [2]: < 4.12
59 | CCCC(C)N1CCC(N(Cc2ccccc2)C(=O)Nc2ccc(F)cc2)CC1 (centres unmarked) [A269] | < 4.17 | 
60 | CCCC(C)N1CCC(N(Cc2ccccc2)C(=O)Nc2cnc(Cl)nc2)CC1 (centres unmarked) [A241] | < 4.28 | 
61 | CCN(CC)C(=O)c1cnn(-c2nccc(-c3cccs3)n2)c1C [E25] |  | pIC50 [3]: 4.20
62 | O=C(NC1CCN(Cc2ccccc2)CC1)NC1CCC2(CC1)OCCO2 [B26] | < 3.78 | 
63 | CCCC(C)N1CCC(N(Cc2ccccc2)C(=O)Nc2ccccc2I)CC1 (centres unmarked) [A285] | < 4.14 | 
64 | Cc1ccc(CN(C(=O)Nc2cccc(C(F)(F)F)c2)C2CCN(Cc3ccccc3)CC2)o1 [B1] | 5.56 | 
65 | CC(Cc1cccc(C(F)(F)F)c1)NC1CCN(Cc2ccccc2)CC1 (centres unmarked) [B38] | < 4.21 | 
66 | CCCC(C)N1CCC(N(Cc2ccccc2)C(=O)Nc2ccc(OC)cc2OC)CC1 (centres unmarked) [A196] | < 4.93 | 
67 | COc1ccc(NC(=O)C2CCN(C(=O)c3ccccc3C)CC2)c(OC)c1 [C21] |  | pIC50 [2]: < 4.17
68 | O=C(Nc1cccc(SC(F)(F)F)c1)NC1CCN(Cc2ccccc2)CC1 [B8] | 4.78 | 
69 | O=C(Nc1ccccc1)NC1CCN(Cc2ccccc2)CC1 [B20, 1-(1-Benzylpiperidin-4-yl)-3-Phenylurea] | > 8.39 | 
70 | O=C(c1ccccc1F)N1CCC(c2nc3ccccc3s2)CC1 [D13] | 4.34 | 
71 | CCN1CCC(N(Cc2ccco2)C(=O)Nc2ccc(OC)cc2)CC1 [B79] | < 4.17 | 
72 | CCCC(C)N1CCC(N(Cc2ccccc2)C(=O)Nc2ccc(CN(C)C)cc2)CC1 (centres unmarked) [A236] | < 4.34 | 
73 | CCCC(C)N1CCC(N(Cc2ccccc2)C(=O)Nc2ccc(Cl)c([N+](=O)[O-])c2)CC1 (centres unmarked) [A11] | 7.09 | 
74 | C=CS(=O)(=O)Nc1cccc(CN(C(=O)Nc2cccc(C(F)(F)F)c2)C2CCN(C(C)CCC)CC2)c1 (centres unmarked) [drawing 844] | 6.78 | 
75 | COc1ccc(C(=O)N2CCC(C(=O)Nc3cccc(C)c3C)CC2)cc1 [C19] |  | pIC50 [2]: < 4.17
76 | CCCC(C)N1CCC(N(Cc2ccccc2)C(=O)Nc2ccc(C)cc2)CC1 (centres unmarked) [A50] | 6.57 | 
77 | CCCCN1CCC(N(Cc2ccccc2)C(=O)Nc2cnn(C)c2)CC1 [A284] | < 4.14 | 
78 | Cc1cc(C)cc(C(=O)N2CCC(c3nc4ccccc4s3)CC2)c1 [D10] | 4.60 | 
79 | COc1ccc(C2c3c(C)nn(C)c3NC(=O)C2NC(=O)c2ccccc2)cc1OC (centres unmarked) [F29] |  | pIC50 [1]: < 4.17
80 | CCCC(C)N1CCC(N(Cc2ccccc2)C(=O)Nc2ccc(Cl)c(F)c2)CC1 (centres unmarked) [A49] | 6.58 | 
